# What was measured:
# PARP1 = PARP1 cleavage (western blot); type: cell-based, human; settings: BJ-TERT/LT/ST/RAS^V12 cells; staurosporine 1 μM 6 h, camptothecin 1 μM 18 h, erastin 20 μg/mL
# Protocol: BJ-TERT/LT/ST/RAS^V12 tumor cells were seeded in six-well dishes, incubated overnight at 37° C. with 5% CO2 and were treated with nothing (NT), staurosporine (ST, 1 μM) for 6 h, camptothecin (C, 1 μM) for 18 h, or erastin (20 μg/mL) for the indicated time, lysed and analyzed by western blot with an anti-PARP1 antibody. A relatively high concentration of erastin was used to ensure loss of PARP cleavage was not due to a concentration-dependent effect.
# BJ-TERT/LT/ST/RAS^V12 cells were seeded in polystyrene 100×20 mm dishes (Falcon/#353003) in 10 ml of media. Three million cells were seeded in each dish. After overnight incubation at 37° C. with 5% CO2, BJ-TERT/LT/ST/RAS^V12 cells were treated with nothing, staurosporine (1 μM) for 6 h, camptothecin (1 μM) for 18 h or erastin (20 μg/mL) for 6, 10, 12, 12.5, 13, 14, 18 or 26 h, and prepared for western blotting.
# murine VDAC3 = biological target: T1, murine VDAC3 (Mus musculus, UniProt Q60931); experiment: NADH oxidation assay in mitochondria from yeast expressing VDAC3; type: biochemical; settings: mitochondria from yeast expressing VDAC3 in place of yeast VDAC
# T1 construct: expressed in transfected cells; host or cells: yeast (S. cerevisiae) with murine VDAC3 in place of yeast VDAC; isolated mitochondria
# T1 sequence (Q60931 1-283): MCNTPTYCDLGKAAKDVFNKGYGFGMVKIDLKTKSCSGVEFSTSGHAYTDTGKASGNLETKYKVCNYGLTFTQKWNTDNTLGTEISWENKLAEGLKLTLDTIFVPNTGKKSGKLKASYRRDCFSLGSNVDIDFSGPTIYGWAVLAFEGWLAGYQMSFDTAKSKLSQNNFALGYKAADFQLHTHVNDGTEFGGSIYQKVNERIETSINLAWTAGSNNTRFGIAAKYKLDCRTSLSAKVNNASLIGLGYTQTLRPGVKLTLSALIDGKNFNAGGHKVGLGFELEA
# Protocol: In certain embodiments, mitochondria can be purified from yeast that had been engineered to express murine or human VDAC3 in place of yeast VDAC.
# Mitochondria were isolated from yeast expressing murine VDAC3 in place of yeast VDAC. The rate of NADH oxidation by an inner membrane NADH dehydrogenase was determined by measuring the change in NADH absorbance over time. Mitochondria with a disrupted outer membrane show an increased rate of NADH oxidation (red, shocked) compared to untreated mitochondria (green).
# NADH oxidation in the mitochondria was measured by resuspending mitochondria isolated from yeast in R-buffer (0.65 M sucrose, 10 mM HEPES (pH 7.5), 10 mM KH2PO4, 5 mM KCl, 5 mM, MgCl2) to a final concentration of 100 μg/ml. Mitochondrial concentration was measured by dissolving mitochondria in 0.6% SDS and reading absorbance at 280 nm. The mitochondrial suspension was then incubated with 25 μM NADH, and the absorbance at 340 nm monitored over a 15 minute period. The assay was repeated in the presence of erastin. To assess mitochondrial intactness, a parallel assay was run in which mitochondria were hypotonically shocked prior to addition of NADH. The mitochondrial pellet was resuspended in dH2O and incubated on ice for 3 minutes to disrupt the outer mitochondrial membrane. 2× R-buffer was then added to restore normal osmotic conditions.
# BJELR cells = experiment: Erastin sensitivity after upregulation of VDAC proteins by nucleofection; type: cell-based, human
# Text: Quantitative western blot showing the ratio of VDACs (top band, green) to eif4E (bottom band, red) (e). […] Green, untransfected BJELR cells; blue, mock nucleofected BJELR cells; red, VDAC2/3-nucleofected BJELR cells (f).
# In certain aspects, the invention provides that erastin acts by a gain-of-function mechanism and that cells with more VDAC proteins are more sensitive to erastin. A gain-of-function mechanism operates in cells which have increased levels of topoisomerase I and are thus more sensitive to camptothecin^149. […] In other embodiments, cell lines can be stably transfected with vectors expressing VDAC1, 2, and/or 3. Thus, increased VDAC expression leads to erastin sensitivity which is consistent with a gain of function mechanism. Furthermore, a knockdown of VDACs causes erastin resistance.
# [1] = Toxicity after injection in mice; type: in vivo
# Protocol: In certain embodiments, erastin was formulated at 150 mg/kg in 10% DMSO, 20% Tween 80, 70% saline and 0.5 mL of this formulation was injected via IV twice per day for four days in 3 nude mice.
compound,measurement,setting,value
"CCOc1ccccc1-n1c(C(C)N2CCN(C(=O)COc3ccc(Cl)cc3)CC2)nc2ccccc2c1=O (stereo not drawn) [erastin, 2-(1-{4-[2-(4-Chloro-phenoxy)-acetyl]-piperazin-1-yl}-ethyl)-3-(2-ethoxy-phenyl)-3H-quinazolin-4-one]",PARP1 cleavage,PARP1,unaffected
same,Rate of NADH oxidation / permeability of outer mitochondrial membrane to NADH,murine VDAC3,increases the permeability
same,Rate of NADH oxidation / permeability of outer mitochondrial membrane to NADH,murine VDAC3; listed as Erastin,increased the rate of NADH oxidation
same,Increase in sensitivity to erastin,BJELR cells,about two to three-fold
same,Gross toxicity (body weight and behavior),"[1]; 150 mg/kg in 10% DMSO, 20% Tween 80, 70% saline, IV twice per day for four days, nude mice",No gross toxicity
same,Overt toxicity,[1]; single dose IP in 100% DMSO up to 450 mg/kg,no overt toxicity
